This passage reports inhibition and IC50 results from ChEMBL document CHEMBL1136215, “Potent quinoxaline-based inhibitors of PDGF receptor tyrosine kinase activity. Part 1: SAR exploration and effective bioisosteric replacement of a phenyl substituent” (Bioorg Med Chem Lett, 2003).

The target in assay [1] is T1, Platelet-derived growth factor receptor (Homo sapiens, UniProt P09619+P16234). In words: Inhibition of Platelet-derived growth factor receptor at 1 uM. It counts as protein-complex assay.
The target of assay [2] is T1, Platelet-derived growth factor receptor. In words: Inhibition of Platelet-derived growth factor receptor. It counts as protein-complex assay.
Another assay concerns HASMC. In words: Inhibition of mitogenesis in human aortic smooth muscle cells(HASMC). It counts as functional, cell-based.

SMILES strings stand for the structures.

For orientation: inhibition means the relative decrease from the control value, in per cent. Read a low inhibition as a weak effect. In assay [1], `COc1cc2ncc(SC3CCCCC3)nc2cc1OC` had an inhibition of 0%.
`COc1cc2ncc(Nc3ccc(Cl)cc3)nc2cc1OC` showed an inhibition in assay [1] of 8%.
By IC50 is commonly meant the concentration needed to halve the response being measured. As to `COc1cc2ncc(OC3CCCCC3)nc2cc1OC`, in assay [2], the IC50 turned out to be 65 nM.
For `COc1ccc2ncc(Nc3ccccc3)nc2c1`, the IC50 in assay [2] worked out at 42 nM.
On the same count and under the same terms, to `COc1cc2ncc(Nc3cccc(Cl)c3)nc2cc1OC` belongs 4 nM.
For `COc1cc2ncc(N(C)c3ccccc3)nc2cc1OC`, the inhibition in assay [1] was 0%.
In assay [2], `COc1cc2ncc(SC3CCCC3)nc2cc1OC` came in with an IC50 of 226 nM.
`COc1cc2ncc(OC3CCCC3)nc2cc1OC` yielded an IC50 in assay [2] of 159 nM.
Regarding `COc1cc2ncc(N[C@@H]3CC4CCC3C4)nc2cc1OC` (stereo in doubt; 38), the IC50 amounted to 15 nM in assay [2] and 61 nM in the assay with HASMC.
Molecule `CCC1CCC(Oc2cnc3cc(OC)c(OC)cc3n2)CC1` (configuration not stated) showed an inhibition in assay [1] of 16%.
Turning to `COc1cc2ncc(O[C@@H]3CC4CCC3C4)nc2cc1OC` (mixture of isomers), in assay [2], the IC50 was determined as 265 nM.
The same measure, in the same setting: then `COc1cc2ncc(NC3CCCC3)nc2cc1OC`, with 128 nM; and `Cc1cc2ncc(Nc3ccccc3)nc2cc1C`, with 340 nM; and `COc1cc2ncc(NC3CCCCC3)nc2cc1OC`, with 124 nM.
For the molecule `COc1cc2ncc(N[C@@H]3CC4CCC3C4)nc2cc1OC` (mixture of isomers), the IC50 in assay [2] stood at 879 nM.
As to `COc1cc2ncc(NCc3ccccc3)nc2cc1OC`, in assay [2], the IC50 stood at 92 nM.
Take `COc1cc2ncc(N[C@H]3CC4CCC3C4)nc2cc1OC` (some centres not stated): the figures for the IC50 (in assay [2]; in the assay on HASMC) were 742 nM and 585 nM, respectively.
`COc1ccc2nc(Nc3ccccc3)cnc2c1` yielded a 50% inhibitory concentration (IC50) in assay [2] of 1600 nM.
In assay [2], `COc1cc2ncc(Nc3ccccc3)nc2cc1OC` showed an IC50 of 6 nM.
For the molecule `COc1cc2ncc(O[C@H]3CC4CCC3C4)nc2cc1OC` (mixture of isomers), the concentration for half-maximal inhibition (IC50) in assay [2] was 25 nM; with HASMC, 395 nM.
Molecule `COc1cc2ncc(NC3CC4CCC3C4)nc2cc1OC` (racemic) came in with an IC50 in assay [2] of 20 nM.
In the case of `COc1cc2ncc(NC3CCCC(C)C3)nc2cc1OC` (configuration not stated), in assay [2], the 50% inhibitory concentration (IC50) worked out at 41 nM.
Same read-out and setting: then `COc1cc2cc(-c3ccsc3)cnc2cc1OC`, with 461 nM; and `c1ccc(Nc2cnc3ccccc3n2)cc1`, with 5100 nM.
In turn, `COc1cc2ncc(NCC3CCCCC3)nc2cc1OC` gave an inhibition in assay [1] of 12%.
`COc1cc2cc(OC3CCCCC3)cnc2cc1OC` displayed a half-inhibitory concentration (IC50) in assay [2] of 601 nM.
Regarding `COc1cccc2nc(Nc3ccccc3)cnc12`, the inhibition in assay [1] is 5%.
Turning to `COc1cc2cc(NC3CCCCC3)cnc2cc1OC`, inhibition in assay [2] was half-maximal at 96 nM (IC50).
As to `COc1cccc2ncc(Nc3ccccc3)nc12`, the inhibition in assay [1] stood at 11%.
